In patent publication US10105372B2, “Methods of treating obesity using antioxidant inflammation modulators” (REATA PHARMACEUTICALS, INC., priority 2010, dated 2018):

Tests used:
[1] = Phase 2b/3 trial, estimated GFR and CKD stage; assay type: in vivo, human; settings: for patients with improvement in CKD stage: Stage 4 to 3b or 3b to 3a; for Change from baseline eGFR, mean ± SE: longitudinal model
Description: Weight measurements were included in the study as a basic clinical parameter. […] Screening estimated GFR was calculated as the mean of two estimated GFR results (differing no more than 25%) collected at least 5 days apart within a 3-week period. […] Exclusion criteria included type 1 diabetes, non-diabetic kidney disease, hemoglobin A1c>10%, QTc […] interval >450 milliseconds, evidence of hepatic dysfunction, and recent cardiovascular disease. […] Study drug was taken orally once daily in the morning one hour prior to food intake. Dose titration occurred as follows: (1) placebo; (2) 25 mg; (3) 25 mg, increased to 75 mg after 4 weeks; and (4) 25 mg, increased to 75 mg after 4 weeks, further increased to 150 mg after an additional 4 weeks. Randomization was stratified by CKD stage (3b versus 4), urinary albumin to creatinine ratio (ACR; ≤ versus >300 mg/g), and glucose control (hemoglobin A1c< versus ≥7%). An independent Data Safety Monitoring Board monitored patient safety. Estimated GFR and routine safety laboratory testing was done at screening and every four weeks thereafter using a central laboratory. Adverse events and clinical laboratory parameters were assessed at each visit. Analysis of the primary outcome, change from baseline estimated GFR at Week 24, occurred after all randomized patients completed Week 24 or previously discontinued study. Exploratory outcomes included change from baseline at Week 24 in serum creatinine, blood urea nitrogen, serum phosphorus, uric acid, ACR, hemoglobin A1c, and intact parathyroid hormone.

[2] = Phase 2b/3 trial, weight over 52 weeks; assay type: in vivo, human
Description: Weight measurements were included in the study as a basic clinical parameter. […] Screening estimated GFR was calculated as the mean of two estimated GFR results (differing no more than 25%) collected at least 5 days apart within a 3-week period. […] Exclusion criteria included type 1 diabetes, non-diabetic kidney disease, hemoglobin A1c>10%, QTc […] interval >450 milliseconds, evidence of hepatic dysfunction, and recent cardiovascular disease. […] Study drug was taken orally once daily in the morning one hour prior to food intake. Dose titration occurred as follows: (1) placebo; (2) 25 mg; (3) 25 mg, increased to 75 mg after 4 weeks; and (4) 25 mg, increased to 75 mg after 4 weeks, further increased to 150 mg after an additional 4 weeks. Randomization was stratified by CKD stage (3b versus 4), urinary albumin to creatinine ratio (ACR; ≤ versus >300 mg/g), and glucose control (hemoglobin A1c< versus ≥7%). An independent Data Safety Monitoring Board monitored patient safety. […] The double-blinded structure of the study was maintained throughout the 52-week period. […] Treatment was discontinued in all groups at week 52 (including the placebo group), and final clinical and laboratory measurements were taken at week 56.

[3] = Week 24, all bardoxolone methyl patients
[4] = 75 mg, Week 56 (treatment discontinued at week 52)
[5] = by week 52, patients treated with bardoxolone methyl

With `COC(=O)[C@]12CCC(C)(C)C[C@H]1[C@H]1C(=O)C=C3[C@@]4(C)C=C(C#N)C(=O)C(C)(C)[C@@H]4CC[C@@]3(C)[C@]1(C)CC2` [bardoxolone methyl] the “patients with improvement in CKD stage” value ([1]; 25 mg group) was 53%, the “patients with improvement in CKD stage” value ([1]; 75 mg group) was 69% and the “patients with improvement in CKD stage” value ([1]; 150 mg group) was 61%. The “estimated GFR, mean increases compared to placebo” value (“estimated GFR, mean increases” below) ([1]; Week 24, 25 mg group) was 8.3±1.1 mL/min/1.73 m^2, the “Change from baseline eGFR, difference between bardoxolone methyl and placebo, mean ± SE” value ([1]; Week 24, 25 mg vs placebo) was 8.2 ± 1.5 mL/min/1.73 m^2 and the “Change from baseline eGFR, mean ± SE” value ([1]; Week 24, 25 mg) was 8.3 ± 1.1 mL/min/1.73 m^2. For the same compound, the “estimated GFR, mean increases” value ([1]; Week 24, 75 mg group) was 11.5±1.1 mL/min/1.73 m^2, the “Change from baseline eGFR, difference between bardoxolone methyl and placebo, mean ± SE” value ([1]; Week 24, 75 mg vs placebo) was 11.4 ± 1.5 mL/min/1.73 m^2 and the “Change from baseline eGFR, mean ± SE” value ([1]; Week 24, 75 mg) was 11.5 ± 1.1 mL/min/1.73 m^2. For the same compound, the “estimated GFR, mean increases” value ([1]; Week 24, 150 mg group) was 10.6±1.1 mL/min/1.73 m^2, the “Change from baseline eGFR, difference between bardoxolone methyl and placebo, mean ± SE” value ([1]; Week 24, 150 mg vs placebo) was 10.5 ± 1.5 mL/min/1.73 m^2 and the “Change from baseline eGFR, mean ± SE” value ([1]; Week 24, 150 mg) was 10.6 ± 1.1 mL/min/1.73 m^2. For the same compound, the “patients with more than a 10% increase in estimated GFR” value [1, 3] was 74%, the “patients with more than a 50% increase in estimated GFR” value [1, 3] was 24% and the “Change from baseline eGFR, difference between bardoxolone methyl and placebo, mean ± SE” value ([1]; Week 24, combined vs placebo) was 10.0 ± 1.3 mL/min/1.73 m^2. The “time from treatment initiation to observed increases in estimated GFR” value ([1]; bardoxolone methyl groups) was ≤ 4 weeks, the “time of peak increase in estimated GFR” value ([1]; bardoxolone methyl groups, stable through Week 24) was 12 Week and the “patients with worsening of CKD stage” value ([1]; each bardoxolone methyl group (2 patients)) was 4%. For the same compound, the “Change in weight from baseline to Week 52: Decrease >5 kg, patients” value (“Change in weight … Decrease >5 kg, patients” for short) ([2]; 25 mg, N = 48) was 35 (73) n (%), the “Change in weight from baseline to Week 52: Decrease >10 kg, patients” value (“Change in weight … Decrease >10 kg, patients” below) ([2]; 25 mg, N = 48) was 16 (33) n (%) and the “Change in weight from baseline to Week 52: Decrease >15 kg, patients” value (“Change in weight … Decrease >15 kg, patients” below) ([2]; 25 mg, N = 48) was 9 (19) n (%). For the same compound, the “Change in weight from baseline to Week 52: Decrease within 5 kg, patients” value (“Change … Decrease within 5 kg, patients” below) ([2]; 25 mg, N = 48) was 8 (17) n (%), the “Change in weight from baseline to Week 52: Increase >5 kg, patients” value (shortened to “Change in weight … Increase >5 kg, patients”) ([2]; 25 mg, N = 48) was 0 n (%) and the “Change in weight from baseline to Week 52: Increase within 5 kg, patients” value (“Change … Increase within 5 kg, patients” for short) ([2]; 25 mg, N = 48) was 5 (10) n (%). The “Change from baseline weight, Mean” value ([2]; 25 mg, Week 4) was -1.4 kg, the “Change from baseline weight, Mean” value ([2]; 25 mg, Week 8) was -2.7 kg and the “Change from baseline weight, Mean” value ([2]; 25 mg, Week 12) was -3.9 kg. For the same compound, the “Change from baseline weight, Mean” value ([2]; 25 mg, Week 16) was -4.3 kg, the “Change from baseline weight, Mean” value ([2]; 25 mg, Week 20) was -5.0 kg and the “Change from baseline weight, Mean” value ([2]; 25 mg, Week 24) was -5.9 kg. The “Change from baseline weight, Mean” value ([2]; 25 mg, Week 28) was -6.3 kg, the “Change from baseline weight, Mean” value ([2]; 25 mg, Week 32) was -6.7 kg and the “Change from baseline weight, Mean” value ([2]; 25 mg, Week 36) was -7.4 kg. The “Change from baseline weight, Mean” value ([2]; 25 mg, Week 40) was -7.9 kg, the “Change from baseline weight, Mean” value ([2]; 25 mg, Week 44) was -8.2 kg and the “Change from baseline weight, Mean” value ([2]; 25 mg, Week 48) was -8.8 kg. For the same compound, the “Change from baseline weight, Mean” value ([2]; 25 mg, Week 52) was -9.3 kg, the “Change from baseline weight, Mean” value ([2]; 25 mg, Week 56 (treatment discontinued at week 52)) was -7.7 kg and the “Change in weight … Decrease >5 kg, patients” value ([2]; 75 mg, N = 48) was 32 (67) n (%). The “Change in weight … Decrease >10 kg, patients” value ([2]; 75 mg, N = 48) was 14 (29) n (%), the “Change in weight … Decrease >15 kg, patients” value ([2]; 75 mg, N = 48) was 4 (8) n (%) and the “Change … Decrease within 5 kg, patients” value ([2]; 75 mg, N = 48) was 12 (25) n (%). For the same compound, the “Change in weight … Increase >5 kg, patients” value ([2]; 75 mg, N = 48) was 0 n (%), the “Change … Increase within 5 kg, patients” value ([2]; 75 mg, N = 48) was 4 (8) n (%) and the “Change from baseline weight, Mean” value ([2]; 75 mg, Week 4) was -1.4 kg. For the same compound, the “Change from baseline weight, Mean” value ([2]; 75 mg, Week 8) was -2.6 kg, the “Change from baseline weight, Mean” value ([2]; 75 mg, Week 12) was -3.4 kg and the “Change from baseline weight, Mean” value ([2]; 75 mg, Week 16) was -4.1 kg. The “Weight, Mean” value ([2]; 75 mg, Week 16) was 91.7 kg, the “Change from baseline weight, Mean” value ([2]; 75 mg, Week 20) was -4.4 kg and the “Weight, Mean” value ([2]; 75 mg, Week 20) was 92.0 kg. For the same compound, the “Change from baseline weight, Mean” value ([2]; 75 mg, Week 24) was -4.7 kg, the “Weight, Mean” value ([2]; 75 mg, Week 24) was 91.7 kg and the “Change from baseline weight, Mean” value ([2]; 75 mg, Week 28) was -5.1 kg. For the same compound, the “Weight, Mean” value ([2]; 75 mg, Week 28) was 91.8 kg, the “Change from baseline weight, Mean” value ([2]; 75 mg, Week 32) was -6.2 kg and the “Weight, Mean” value ([2]; 75 mg, Week 32) was 91.6 kg. For the same compound, the “Change from baseline weight, Mean” value ([2]; 75 mg, Week 36) was -6.1 kg, the “Weight, Mean” value ([2]; 75 mg, Week 36) was 91.0 kg and the “Change from baseline weight, Mean” value ([2]; 75 mg, Week 40) was -6.5 kg. For the same compound, the “Weight, Mean” value ([2]; 75 mg, Week 40) was 90.6 kg, the “Change from baseline weight, Mean” value ([2]; 75 mg, Week 44) was -6.9 kg and the “Weight, Mean” value ([2]; 75 mg, Week 44) was 90.8 kg. For the same compound, the “Change from baseline weight, Mean” value ([2]; 75 mg, Week 48) was -7.4 kg, the “Weight, Mean” value ([2]; 75 mg, Week 48) was 90.4 kg and the “Change from baseline weight, Mean” value ([2]; 75 mg, Week 52) was -7.7 kg. For the same compound, the “Weight, Mean” value ([2]; 75 mg, Week 52) was 90.0 kg, the “Change from baseline weight, Mean” value [2, 4] was -7.6 kg and the “Weight, Mean” value [2, 4] was 90.7 kg. The “Change in weight … Decrease >5 kg, patients” value ([2]; 150 mg, N = 45) was 34 (76) n (%), the “Change in weight … Decrease >10 kg, patients” value ([2]; 150 mg, N = 45) was 22 (49) n (%) and the “Change in weight … Decrease >15 kg, patients” value ([2]; 150 mg, N = 45) was 12 (27) n (%). For the same compound, the “Change … Decrease within 5 kg, patients” value ([2]; 150 mg, N = 45) was 8 (18) n (%), the “Change in weight … Increase >5 kg, patients” value ([2]; 150 mg, N = 45) was 1 (2) n (%) and the “Change … Increase within 5 kg, patients” value ([2]; 150 mg, N = 45) was 2 (4) n (%). The “Change from baseline weight, Mean” value ([2]; 150 mg, Week 4) was -1.3 kg, the “Change from baseline weight, Mean” value ([2]; 150 mg, Week 8) was -2.1 kg and the “Change from baseline weight, Mean” value ([2]; 150 mg, Week 12) was -3.3 kg. For the same compound, the “Change from baseline weight, Mean” value ([2]; 150 mg, Week 16) was -3.9 kg, the “Change from baseline weight, Mean” value ([2]; 150 mg, Week 20) was -5.0 kg and the “Change from baseline weight, Mean” value ([2]; 150 mg, Week 24) was -5.8 kg. The “Change from baseline weight, Mean” value ([2]; 150 mg, Week 28) was -6.7 kg, the “Change from baseline weight, Mean” value ([2]; 150 mg, Week 32) was -7.2 kg and the “Change from baseline weight, Mean” value ([2]; 150 mg, Week 36) was -8.1 kg. For the same compound, the “Change from baseline weight, Mean” value ([2]; 150 mg, Week 40) was -8.7 kg, the “Change from baseline weight, Mean” value ([2]; 150 mg, Week 44) was -9.2 kg and the “Change from baseline weight, Mean” value ([2]; 150 mg, Week 48) was -10 kg. For the same compound, the “Change from baseline weight, Mean” value ([2]; 150 mg, Week 52) was -10 kg, the “Change from baseline weight, Mean” value ([2]; 150 mg, Week 56 (treatment discontinued at week 52)) was -9.6 kg and the “fraction of patients who had lost more than 5 kg” value [2, 5] was “at least two thirds”. For the same compound, the “fraction of patients who had lost more than 10 kg” value [2, 5] was “Approximately one third”.
